ChEMBL document CHEMBL5523735 (J Med Chem, 2024)
Values after ≈ are worked out from the molar mass of the structure shown.

What was measured:
[1] = biological target: T1, P2Y purinoceptor 14 (Homo sapiens) (UniProt Q15391)
T1 sequence (whole entry): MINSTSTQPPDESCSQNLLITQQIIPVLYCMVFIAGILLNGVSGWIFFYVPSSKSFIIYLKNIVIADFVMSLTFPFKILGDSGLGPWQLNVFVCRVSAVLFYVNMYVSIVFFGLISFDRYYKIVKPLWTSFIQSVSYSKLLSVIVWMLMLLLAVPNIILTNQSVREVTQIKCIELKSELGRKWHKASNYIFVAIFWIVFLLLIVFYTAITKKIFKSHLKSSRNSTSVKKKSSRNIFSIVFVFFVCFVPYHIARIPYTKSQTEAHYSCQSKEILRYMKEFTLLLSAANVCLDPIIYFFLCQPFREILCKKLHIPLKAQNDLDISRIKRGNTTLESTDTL
Description: Antagonist activity at P2Y14R (unknown origin) stably expressed in HEK293 cells assessed as inhibition of forskolin-induced cAMP production at 100 nM by cAMP-Glo assay relative to control

[2] = biological target: P2Y purinoceptor 4 (Homo sapiens, UniProt P51582); experiment: Inhibition of P2Y4R (unknown origin) expressed in HEK293 cells assessed as decrease in IP3 production; type: functional, cell-based
[3] = biological target: P2Y purinoceptor 12 (Homo sapiens, UniProt Q9H244); experiment: Inhibition of P2Y12R (unknown origin) expressed in HEK293 cells assessed as restoration of cAMP reduction; type: functional, cell-based
[4] = biological target: T2, P2Y purinoceptor 14 (Homo sapiens, UniProt Q15391); experiment: Antagonist activity at P2Y14R (unknown origin) stably expressed in HEK293 cells assessed as inhibition of forskolin-induced cAMP production by cAMP-Glo assay; type: functional, cell-based
T2 sequence (Q15391 whole entry): T1 sequence (whole entry)

[5] = Aqueous solubility of compound in SGF at pH 1.2 by spectrometry; type: ADME
[6] = Aqueous solubility of compound in SIF at pH 6.8 by spectrometry; type: ADME; details: simulated gi fluid
[7] = Aqueous solubility of compound in double distilled water at pH 7 by spectrometry; type: physicochemical; details: buffer
[8] = Aqueous solubility of compound in PBS at pH 7.4 by spectrometry; type: physicochemical; details: buffer
[9] = Metabolic stability in human liver microsomes measured for 90 mins; type: ADME, Microsome; details: 1.5 h
[10] = biological target: P2Y purinoceptor 6 (Homo sapiens, UniProt Q15077); experiment: Inhibition of P2Y6R (unknown origin) expressed in HEK293 cells assessed as decrease in IP3 reduction
[11] = HEK293, filed as antagonist, dose 100.0 nM

Sequence of P2Y purinoceptor 12 (Q9H244 whole entry): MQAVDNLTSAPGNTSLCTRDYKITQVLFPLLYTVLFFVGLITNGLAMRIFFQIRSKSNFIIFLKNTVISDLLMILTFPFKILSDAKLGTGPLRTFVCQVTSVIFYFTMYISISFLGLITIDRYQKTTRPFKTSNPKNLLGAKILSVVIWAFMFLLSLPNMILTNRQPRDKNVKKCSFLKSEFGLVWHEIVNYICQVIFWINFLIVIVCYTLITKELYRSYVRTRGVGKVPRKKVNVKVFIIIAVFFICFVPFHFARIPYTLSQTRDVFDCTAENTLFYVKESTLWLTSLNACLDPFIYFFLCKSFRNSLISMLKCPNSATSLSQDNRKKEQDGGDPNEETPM
Sequence of P2Y purinoceptor 6 (Q15077 whole entry): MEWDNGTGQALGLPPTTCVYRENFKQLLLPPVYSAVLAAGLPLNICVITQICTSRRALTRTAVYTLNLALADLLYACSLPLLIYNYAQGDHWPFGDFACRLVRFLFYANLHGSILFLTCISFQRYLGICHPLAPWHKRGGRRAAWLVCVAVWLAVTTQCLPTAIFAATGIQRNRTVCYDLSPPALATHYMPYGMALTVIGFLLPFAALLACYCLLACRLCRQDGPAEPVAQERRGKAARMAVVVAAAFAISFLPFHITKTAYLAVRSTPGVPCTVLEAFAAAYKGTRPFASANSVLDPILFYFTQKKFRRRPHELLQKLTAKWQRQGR
Sequence of P2Y purinoceptor 4 (P51582 whole entry): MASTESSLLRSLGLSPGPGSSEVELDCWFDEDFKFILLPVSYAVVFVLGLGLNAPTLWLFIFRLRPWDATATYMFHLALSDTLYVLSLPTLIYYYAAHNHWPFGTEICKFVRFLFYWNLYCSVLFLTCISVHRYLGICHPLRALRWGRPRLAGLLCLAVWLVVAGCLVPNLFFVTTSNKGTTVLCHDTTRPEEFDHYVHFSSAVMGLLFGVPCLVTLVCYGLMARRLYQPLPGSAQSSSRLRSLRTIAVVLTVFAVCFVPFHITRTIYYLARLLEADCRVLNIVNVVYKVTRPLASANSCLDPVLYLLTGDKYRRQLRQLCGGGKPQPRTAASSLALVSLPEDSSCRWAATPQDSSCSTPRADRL

| inhibition [1, 11] [%] | IC50 [4] [nM] | Structure (SMILES) | also measured |
| --- | --- | --- | --- |
| 54.3 | – | Cc1ccc(C(=O)Nc2cc(C(=O)O)sc2Oc2ccc(C(C)C)cc2)cc1 | – |
| 60.3 | – | Cc1ccc(C(=O)Nc2cc(C(=O)O)sc2Oc2ccsn2)cc1 | – |
| – | – | O=C(C1CC1)N1CCc2cc(Br)c(S(=O)(=O)Nc3ccc(C(F)(F)F)c(Cl)c3)cc21 | IC50 [2]: 13000 nM |
| 63.2 | – | COc1cccc(Oc2sc(C(=O)O)cc2NC(=O)c2ccc(C)cc2)c1 | – |
| – | – | CCCSc1nc(N[C@@H]2C[C@H]2c2ccc(F)c(F)c2)c2nnn([C@@H]3C[C@H](OCCO)[C@@H](O)[C@H]3O)c2n1 [TICAGRELOR] | IC50 [3]: 1280 nM |
| 66.3 | 124 | CCCc1ccc(Oc2sc(C(=O)O)cc2NC(=O)c2ccc(C)cc2)cc1 | – |
| 88.4 | 6.53 | Cc1ccc(Sc2sc(C(=O)O)cc2NC(=O)c2ccc(C)cc2)cc1 | – |
| 62.6 | – | Cc1ccc(C(=O)Nc2cc(C(=O)O)sc2Oc2ccc(C(F)(F)F)cc2)cc1 | – |
| – | – | Cc1ccc(Oc2sc(C(=O)O)cc2NC(=O)c2ccc(C(F)(F)F)cc2)cn1 | inhibition ([1]; HEK293, dose 100.0 nM): 39.7% |
| 83.9 | 3130 | Cc1ccc(Oc2sc(C(=O)O)cc2NC(=O)c2cnc(C)nc2)cn1 | – |
| 112 | 1.29 | COc1ccc(C(=O)Nc2cc(C(=O)O)sc2Oc2ccc(C)nc2)cc1 | solubility ([5]; SGF, read-out: solubility): 2.26 µg/mL (≈ 5.88 µM); solubility [6]: 0.423 µg/mL (≈ 1.1 µM); solubility [7]: 0.063 µg/mL (≈ 0.164 µM); solubility [8]: 2.33 µg/mL (≈ 6.06 µM); Stability [9]: Stable |
| 44.3 | – | Cc1ccc(Oc2sc(C(=O)O)cc2NC(=O)c2ccc(C(C)C)cc2)cn1 | – |
| – | – | Cc1ccc(C(=O)Nc2cc(C(=O)O)sc2Oc2ccc(OC(F)(F)F)cc2)cc1 | inhibition ([1]; HEK293, dose 100.0 nM): 32.7% |
| 74.9 | 1690 | Cc1ccc(C(=O)Nc2cc(C(=O)O)sc2Oc2ccccn2)cc1 | – |
| 40.8 | – | Cc1ccc(Oc2sc(C(=O)O)cc2NC(=O)c2ccc(N(C)C)cc2)cn1 | – |
| – | 1.52 | O=C(CCCNC(=S)Nc1ccc2c(c1)C(=O)OC21c2ccc(O)cc2Oc2cc(O)ccc21)NCCCC(=O)N1CCC(c2ccc(-c3cc(C(=O)O)cc4cc(-c5ccc(C(F)(F)F)cc5)ccc34)cc2)CC1 | – |
| 52.8 | – | Cc1ccc(C(=O)Nc2cc(C(=O)O)sc2Oc2cccc(C(F)(F)F)c2)cc1 | – |
| 42.3 | – | Cc1ccc(C(=O)Nc2cc(C(=O)O)sc2Oc2ccccc2)cc1 | – |
| 40.4 | – | Cc1ccc(C(=O)Nc2cc(C(=O)O)sc2Oc2ccccc2Cl)cc1 | – |
| 60.1 | – | Cc1ccc(C(=O)Nc2cc(C(=O)O)sc2Oc2ccc(C)nc2)nc1 | – |

| inhibition [1, 11] [%] | IC50 [4] [nM] | Structure (SMILES) | also measured |
| --- | --- | --- | --- |
| – | – | Cc1ccc(C(=O)Nc2cc(C(=O)O)cc(-c3ccoc3)c2)cc1 | solubility ([5]; simulated gi fluid): 0.069 µg/mL (≈ 0.215 µM); solubility [6]: 0.471 µg/mL (≈ 1.47 µM); solubility [7]: 0.078 µg/mL (≈ 0.243 µM); solubility [8]: 0.878 µg/mL (≈ 2.73 µM) |
| 66 | 18600 | CC(=O)Nc1ccc(Oc2sc(C(=O)O)cc2NC(=O)c2ccc(C)cc2)cc1 | – |
| – | – | Cc1ccc(Oc2sc(C(=O)O)cc2NC(=O)c2ccc(C(C)(C)C)cc2)cn1 | inhibition ([1]; HEK293, dose 100.0 nM): 12.2% |
| 44.1 | – | Cc1ccc(C(=O)Nc2cc(C(=O)O)sc2Oc2ccc(C(=O)O)cc2)cc1 | – |
| 90.6 | 0.55 | Cc1ccc(C(=O)Nc2cc(C(=O)O)sc2Oc2ccc(C)cn2)cc1 | solubility ([5]; SGF, read-out: solubility): 0.03 µg/mL (≈ 0.0814 µM); solubility [6]: 0.109 µg/mL (≈ 0.296 µM); solubility [7]: 0.039 µg/mL (≈ 0.106 µM); solubility [8]: 1.7 µg/mL (≈ 4.61 µM) |
| 97.4 | 4.01 | Cc1ccc(Oc2sc(C(=O)O)cc2NC(=O)c2ccc(C)cc2)cc1 | – |
| 62 | – | Cc1ccc(C(=O)Nc2cc(C(=O)O)sc2Oc2cccnc2)cc1 | – |
| – | – | Cc1ccc(C(=O)Nc2cc(C(=O)O)nn2Cc2ccc(F)cc2)cc1 | solubility ([5]; simulated gi fluid): 0.085 µg/mL (≈ 0.241 µM); solubility [6]: 0.203 µg/mL (≈ 0.574 µM); solubility [7]: 0.088 µg/mL (≈ 0.249 µM); solubility [8]: 0.318 µg/mL (≈ 0.9 µM) |
| 46.6 | – | Cc1ccc(Oc2sc(C(=O)O)cc2NC(=O)c2ccc(F)cc2)cn1 | – |
| – | – | CC(=O)c1ccc(Oc2sc(C(=O)O)cc2NC(=O)c2ccc(C)cc2)cc1 | inhibition ([1]; HEK293, dose 100.0 nM): 34.5% |
| 83.4 | 17.6 | Cc1ccc(C(=O)Nc2cc(C(=O)O)sc2Oc2ccc(F)nc2)cc1 | solubility ([5]; SGF, read-out: solubility): 0.036 µg/mL (≈ 0.0967 µM); solubility [6]: 1.202 µg/mL (≈ 3.23 µM); solubility [7]: 0.041 µg/mL (≈ 0.11 µM); solubility [8]: 3.253 µg/mL (≈ 8.74 µM) |
| 59.8 | – | CCc1ccc(C(=O)Nc2cc(C(=O)O)sc2Oc2ccc(C)nc2)cc1 | – |
| 44.3 | – | CCCc1ccc(C(=O)Nc2cc(C(=O)O)sc2Oc2ccc(C)nc2)cc1 | – |
| – | – | Cc1ccc(Oc2sc(C(=O)O)cc2NC(=O)c2ccc(C)nc2)cn1 | inhibition ([1]; HEK293, dose 100.0 nM): 30.3% |
| 116 | 7.51 | C#Cc1ccc(C(=O)Nc2cc(C(=O)O)sc2Oc2ccc(C)nc2)cc1 | – |
| 55.8 | – | Cc1ccc(C(=O)Nc2cc(C(=O)O)sc2Oc2cccc(C)c2)cc1 | – |
| 99.4 | 6.53 | Cc1ccc(C(=O)Nc2cc(C(=O)O)sc2Oc2ccc(C)nc2)cc1 | solubility ([5]; SGF, read-out: solubility): 0.844 µg/mL (≈ 2.29 µM); solubility [6]: 0.189 µg/mL (≈ 0.513 µM); solubility [7]: 0.067 µg/mL (≈ 0.182 µM); solubility [8]: 2.37 µg/mL (≈ 6.43 µM) |
| 69.8 | 24500 | COc1ccc(Oc2sc(C(=O)O)cc2NC(=O)c2ccc(C)cc2)cc1 | – |
| – | – | Cc1ccc(C(=O)Nc2cc(C(=O)O)sc2Oc2ccc(C#N)cc2)cc1 | inhibition ([1]; HEK293, dose 100.0 nM): 16.2% |
| – | – | Cc1ccc(Oc2sc(C(=O)O)cc2NC(=O)c2ccc(Cl)cc2)cn1 | inhibition ([1]; HEK293, dose 100.0 nM): 21% |

| inhibition [1, 11] [%] | IC50 [4] [nM] | Structure (SMILES) | also measured |
| --- | --- | --- | --- |
| 81.9 | 13 | Cc1ccc(Oc2sc(C(=O)O)cc2NC(=O)c2ccccc2)cn1 | – |
| – | – | Cc1ccc(C(=O)Nc2cc(C(=O)O)sc2Oc2cccc(Cl)c2)cc1 | inhibition ([1]; HEK293, dose 100.0 nM): 36.2% |
| 43.5 | – | Cc1ccc(C(=O)Nc2cc(C(=O)O)sc2Oc2ccncc2)cc1 | – |
| 57.1 | – | Cc1ccc(C(=O)Nc2cc(C(=O)O)sc2Oc2ccccc2C(F)(F)F)cc1 | – |
| 62.8 | – | Cc1ccc(C(=O)Nc2cc(C(=O)O)sc2Oc2ccc(S(C)(=O)=O)cc2)cc1 | – |
| – | – | Cc1ccc(C(=O)Nc2cc(C(=O)O)sc2Oc2ccc(Cl)cc2)cc1 | inhibition ([1]; HEK293, dose 100.0 nM): 39.9% |
| – | – | O=C(O)c1cc(-c2ccc(C3CCNCC3)cc2)c2ccc(-c3ccc(C(F)(F)F)cc3)cc2c1 [PPTN] | solubility ([5]; SGF, read-out: solubility): < 0.005 µg/mL; solubility [6]: < 0.005 µg/mL; solubility [7]: < 0.005 µg/mL; solubility [8]: < 0.005 µg/mL |
| 41.7 | – | Cc1ccc(Nc2sc(C(=O)O)cc2NC(=O)c2ccc(C)cc2)cc1 | – |
| 74.8 | 60.6 | Cc1ccc(C(=O)Nc2cc(C(=O)O)sc2Oc2ccc(F)cc2)cc1 | – |
| 45.8 | – | Cc1ccc(C(=O)Nc2cc(C(=O)O)sc2Oc2ccccc2C)cc1 | – |
| – | – | Cc1ccc(Oc2sc(C(=O)O)cc2NC(=O)c2ccc(C#N)cc2)cn1 | inhibition ([1]; HEK293, dose 100.0 nM): 33% |
| 42.8 | – | Cc1ccc(Oc2sc(C(=O)O)cc2NC(=O)c2cnn(C)c2)cn1 | – |
| 69.6 | 87.7 | Cc1ccc(C(=O)Nc2cc(C(=O)O)sc2Oc2cccc(F)c2)cc1 | – |
| 48.1 | – | COc1ccccc1Oc1sc(C(=O)O)cc1NC(=O)c1ccc(C)cc1 | – |
| – | – | S=C=Nc1cccc(NC(=S)NCCCCNC(=S)Nc2cccc(N=C=S)c2)c1 | IC50 [10]: 23.4 nM |
| 67.4 | 81.3 | CCc1ccc(Oc2sc(C(=O)O)cc2NC(=O)c2ccc(C)cc2)cc1 | – |
| 71 | 1060 | Cc1ccc(Oc2sc(C(=O)O)cc2NC(=O)c2cnc(C)cn2)cn1 | – |
| 66 | 104 | Cc1ccc(C(=O)Nc2cc(C(=O)O)sc2Oc2ccccc2F)cc1 | – |
| 54.4 | – | Cc1ccc(C(=O)Nc2cc(C(=O)O)sc2Oc2ccc(C(C)(C)C)cc2)cc1 | – |
